{"source": "patent US7413876B2", "about": "(priority 1990, dated 2008)", "key": {"[1]": {"target": "human β2-adrenergic receptor (hβAR) (Homo sapiens, UniProt P07550)", "method": "After 36 hours, cells were harvested and spheroplasts were prepared as described. […] Briefly, the spheroplasts were resuspended in 50 mM Tris-HCl pH 7.4, 5 mM EDTA and were lysed by vortex mixing with glass beads for three one-min periods at 4° C.\nFIG. 2 illustrates hβAR ligand binding to membranes from pYβAR2-transformed yeast cells. […] Specific binding was defined as the amount of total binding (circles) minus nonspecific binding measured in the presence of 10 μM (−) alprenolol (squares)."}, "[2]": {"target": "T1, Human β-Adrenergic Receptor (Homo sapiens, UniProt P07550)", "T1 construct": "expressed in transfected cells; host or cells: monkey COS-7 cells", "details": "Monkey COS-7 (pBC12: β, BAR); cited from earlier work"}, "[3]": {"test_system": "pheromone-responsive FUS1 gene promoter", "experiment": "FUS1-lacZ β-galactosidase induction in 8cl (gpal) cells coexpressing hβAR and rat Gsα", "assay_type": "cell-based, yeast", "method": "To confirm that the pheromone signaling pathway was activated by hβAR and rat Gsα, agonist induction of the pheromone-responsive FUSl gene promoter was measured in a strain of yeast derived from 8c cells (8cl) in which a FUS1-lacZ gene fusion had been stably integrated into the genome.\nStrains 8c (FIG. 3, legend) and NNY19 (MATa ura3 leu2 his3 trp1 lys2 FUSl-LacZ::LEU2) were modified by integrative transformation with YIpFUS102 (LEU2), S. Nomoto et al., supra, and designated 8cl and NNY19, respectively. These strains were transformed with pYβAR2 and pYSK136Gαs and maintained on minimal selective plates containing glucose and 50 μM CuSO4. […] See J. Miller, supra.\nAgonist stimulation was stereoselective and was blocked by addition of a specific antagonist. Agonist responsiveness was dependent on expression of both hβAR and rat Gsα, and required a strain in which the endogenous G protein α-subunit was disrupted."}, "[4]": {"test_system": "8c cells coexpressing hβAR and rat Gsα", "experiment": "Shmoo formation (morphology) of yeast strain 8c (gpa1) coexpressing hβAR and rat Gsα", "procedure": "Colonies were transferred to similar plates containing 0.5 mM ascorbic acid and the indicated adrenergic ligand(s). After 16-20 hours at 30° C., the colonies were transferred to similar liquid media at a density of 10^6-10^7 cells/ml and examined by phase contrast microscopy."}}, "data": [{"compound": "CC(C)(C)NC[C@H](O)COc1cccc2[nH]c(C#N)c([125I])c12", "note": "[125I-CYP, 125I-labeled cyanopindolol]", "values": [{"measurement": "Bmax, maximum ligand bound", "setting": "[1]; Yeast SC261 (pYβAR2, pMTL9) membranes", "value": 115, "unit": "pmol/mg"}, {"measurement": "binding of 125I-CYP to membranes", "setting": "[1]; membranes from pYβAR2-transformed yeast cells", "value": "bound in a saturable manner and with high affinity"}, {"measurement": "Bmax, maximum ligand bound", "setting": "[2]", "value": 24, "unit": "pmol/mg"}]}, {"compound": "CC(C)NCC(O)c1ccc(O)c(O)c1", "note": "(stereo not drawn) [isoproterenol]", "values": [{"measurement": "induction of β-galactosidase activity", "setting": "[3]; 8cl (gpal) cells, 4 hour incubation at 30° C.", "value": "dramatic isoproterenol-stimulated induction"}, {"measurement": "final β-galactosidase activity relative to α-factor in nontransformed NNY19 cells", "setting": "[3]; transformed 8cl cells vs NNY19 cells expressing GPA1", "value": "comparable to that induced by α-factor"}, {"measurement": "shmoo formation", "setting": "[4]; 100 μM isoproterenol, 16-20 hours at 30° C., phase contrast microscopy", "value": "induced shmoo formation"}]}, {"compound": "(−) epinephrine", "values": [{"measurement": "Ki", "setting": "[1]", "value": "664 ± 123", "unit": "nM"}]}, {"compound": "CC(C)(C)NC[C@H](O)COc1cccc2[nH]c(C#N)c(I)c12", "note": "[125I-CYP, 125I-labeled cyanopindolol]", "values": [{"measurement": "Kd", "setting": "[1]; read-out: Kd for 125I-CYP binding, 125I-CYP 5-400 pM, nonspecific binding with 10 μM (−) alprenolol", "value": 0.093, "unit": "nM"}]}, {"compound": "C=CCc1ccccc1OCC(O)CNC(C)C", "note": "(stereo not drawn) [alprenolol]", "values": [{"measurement": "block of isoproterenol-induced shmoo formation", "setting": "[4]; 100 μM (−) isoproterenol and 50 μM (−) alprenolol", "value": "blocked"}]}]}
